Assay results published in PubChem BioAssay AID328 (DTP/NCI, 2004).
Values joined by “and” are separate entries in the source; they are usually repeats but may differ in a detail not shown here. Identical values can stand only once. Toxic doses and inconclusive results are not listed.

System: BDF1 mice, P388 leukemia ip, median survival T/C
Test: NCI In Vivo Anticancer Drug Screen. Data for tumor model P388 Leukemia (intraperitoneal) in B6D2F1 (BDF1) mice
Conditions: endpoint: median survival time, higher = longer survival
Procedure, shortened: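 Mice carrying the transplantable tumour receive compound or vehicle. Survival is followed in each arm, and the treated measure is divided by the vehicle measure.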

[1] = dose: 200.0 mg/kg/injection, schedule: Q01DX009 (ip), vehicle: saline
[2] = dose: 400.0 mg/kg/injection, schedule: Q01DX009 (ip), vehicle: saline
[3] = dose: 25.0 mg/kg/injection, schedule: Q01DX009 (ip), vehicle: saline
[4] = dose: 50.0 mg/kg/injection, schedule: Q01DX009 (ip), vehicle: saline
[5] = dose: 100.0 mg/kg/injection, schedule: Q04DX003 (ip), vehicle: saline with Tween-80
[6] = dose: 100.0 mg/kg/injection, schedule: Q01DX009 (ip), vehicle: saline with Tween-80
[7] = dose: 200.0 mg/kg/injection, schedule: Q01DX009 (ip), vehicle: saline with Tween-80
[8] = dose: 50.0 mg/kg/injection, schedule: Q01DX009 (ip), vehicle: Klucel (hydroxypropylcellulose) (HPC)
[9] = dose: 100.0 mg/kg/injection, schedule: Q01DX009 (ip), vehicle: Klucel (hydroxypropylcellulose) (HPC)
[10] = dose: 50.0 mg/kg/injection, schedule: Q01DX009 (ip), vehicle: saline with Tween-80

O=C(Cn1cc(F)c(=O)[nH]c1=O)c1ccco1
T/C (dose: 100.0 mg/kg/injection, schedule: Q01DX009 (ip), vehicle: saline): 100 % of control
T/C (dose: 100.0 mg/kg/injection, schedule: Q04DX003 (ip), vehicle: saline): 111 % of control
T/C [1]: 95 % of control
T/C (dose: 200.0 mg/kg/injection, schedule: Q04DX003 (ip), vehicle: saline): 105 % of control and 122 % of control
T/C [2]: 100 % of control
T/C (dose: 400.0 mg/kg/injection, schedule: Q04DX003 (ip), vehicle: saline): 86 % of control
T/C (dose: 600.0 mg/kg/injection, schedule: Q04DX003 (ip), vehicle: saline): 95 % of control

CCOC(=O)C(CC(C)C)NC(=O)C(Cc1ccc(N(CCCl)CCCl)cc1)NC(C)=O (stereo unspecified)
T/C (dose: 1.0 mg/kg/injection, schedule: Q01DX009 (ip), vehicle: other): 104 % of control
T/C (dose: 2.0 mg/kg/injection, schedule: Q01DX009 (ip), vehicle: other): 109 % of control
T/C (dose: 8.0 mg/kg/injection, schedule: Q01DX009 (ip), vehicle: other): 163 % of control
T/C (dose: 32.0 mg/kg/injection, schedule: Q01DX009 (ip), vehicle: other): 163 % of control
T/C (dose: 64.0 mg/kg/injection, schedule: Q01DX009 (ip), vehicle: other): 172 % of control
T/C (dose: 128.0 mg/kg/injection, schedule: Q01DX009 (ip), vehicle: other): 195 % of control
T/C (dose: 256.0 mg/kg/injection, schedule: Q01DX009 (ip), vehicle: other): 89 % of control

CCCCCCOP(=O)(N1CC1)N1CC1
T/C [3]: 123 % of control
T/C [4]: 90 % of control
T/C [5]: 113 % of control

COC(OC)c1nc(N)[nH]c(=O)c1Cc1ccc(C)c2ccccc12
T/C [6]: 96 % of control
T/C [5]: 109 % of control
T/C [7]: 88 % of control
T/C (dose: 200.0 mg/kg/injection, schedule: Q04DX003 (ip), vehicle: saline with Tween-80): 100 % of control
T/C (dose: 400.0 mg/kg/injection, schedule: Q04DX003 (ip), vehicle: saline with Tween-80): 100 % of control

CC(=O)O[C@]1(C(C)=O)CC[C@H]2[C@@H]3C[C@H](F)C4=CC(=O)CC[C@]4(C)[C@H]3CC[C@@]21C
T/C (dose: 12.5 mg/kg/injection, schedule: Q01DX009 (ip), vehicle: Klucel (hydroxypropylcellulose) (HPC)): 109 % of control
T/C (dose: 25.0 mg/kg/injection, schedule: Q01DX009 (ip), vehicle: Klucel (hydroxypropylcellulose) (HPC)): 100 % of control
T/C [8]: 100 % of control
T/C [9]: 87 % of control
T/C (dose: 100.0 mg/kg/injection, schedule: Q04DX003 (ip), vehicle: alcohol): 100 % of control
T/C (dose: 200.0 mg/kg/injection, schedule: Q04DX003 (ip), vehicle: alcohol): 105 % of control
T/C (dose: 400.0 mg/kg/injection, schedule: Q04DX003 (ip), vehicle: alcohol): 110 % of control

O=C(/C=N/O)/C=N/O (tested in a mixture with another compound)
T/C (dose: 6.0 mg/kg/injection, schedule: Q01DX009 (ip), vehicle: saline): 108 % of control
T/C (dose: 6.0 mg/kg/injection, schedule: Q04DX003 (ip), vehicle: saline): 100 % of control
T/C (dose: 12.0 mg/kg/injection, schedule: Q01DX009 (ip), vehicle: saline): 100 % of control
T/C (dose: 12.0 mg/kg/injection, schedule: Q04DX003 (ip), vehicle: saline): 113 % of control
T/C [3]: 100 % of control
T/C (dose: 25.0 mg/kg/injection, schedule: Q04DX003 (ip), vehicle: saline): 95 % of control

CCCCCCC(=O)/C=C/c1ccccc1Cl
T/C [6]: 102 % of control
T/C [7]: 118 % of control
T/C (dose: 400.0 mg/kg/injection, schedule: Q01DX009 (ip), vehicle: saline with Tween-80): 93 % of control

O=S1(=O)CCN(C2CCCCCCCCCCC2)CC1
T/C [8]: 108 % of control
T/C [9]: 106 % of control
T/C (dose: 200.0 mg/kg/injection, schedule: Q01DX009 (ip), vehicle: Klucel (hydroxypropylcellulose) (HPC)): 101 % of control

c1ccc2c3c(ccc2c1)OCCOCCOc1ccc2ccccc2c1-3
T/C [10]: 86 % of control
T/C [6]: 88 % of control
T/C [7]: 92 % of control

Cc1ccc(/C=C2\NC(=O)NC2=O)cc1
T/C (dose: 25.0 mg/kg/injection, schedule: Q01DX009 (ip), vehicle: water): 106 % of control
T/C (dose: 50.0 mg/kg/injection, schedule: Q01DX009 (ip), vehicle: water): 106 % of control
T/C (dose: 50.0 mg/kg/injection, schedule: Q04DX003 (ip), vehicle: water): 94 % of control
T/C (dose: 100.0 mg/kg/injection, schedule: Q01DX009 (ip), vehicle: water): 95 % of control
T/C (dose: 100.0 mg/kg/injection, schedule: Q04DX003 (ip), vehicle: water): 106 % of control
T/C (dose: 200.0 mg/kg/injection, schedule: Q01DX009 (ip), vehicle: water): 98 % of control
T/C (dose: 200.0 mg/kg/injection, schedule: Q04DX003 (ip), vehicle: water): 103 % of control
T/C (dose: 400.0 mg/kg/injection, schedule: Q01DX009 (ip), vehicle: water): 94 % of control
T/C (dose: 400.0 mg/kg/injection, schedule: Q04DX003 (ip), vehicle: water): 97 % of control

COc1cc(/C=C/c2ccc3ccccc3n2)cc(OC)c1OC
T/C [5]: 100 % of control

COc1cccc2c1C(=O)c1c(O)c3c(c(O)c1C2=O)CC(O)(/C(C)=N/NC(=O)CCCCCCC(=O)N/N=C(\C)C1(O)Cc2c(O)c4c(c(O)c2C(OC2CC(N)C(O)C(C)O2)C1)C(=O)c1c(OC)cccc1C4=O)CC3OC1CC(N)C(O)C(C)O1 (stereo unspecified)
T/C (dose: 2.0 mg/kg/injection, schedule: Q01DX009 (ip), vehicle: water): 165 % of control
T/C (dose: 4.0 mg/kg/injection, schedule: Q01DX009 (ip), vehicle: water): 201 % of control

c1c2c(cc3c1OCO3)CC1CCCN1CC2 (stereo unspecified)
T/C (dose: 0.5 mg/kg/injection, schedule: Q01DX009 (ip), vehicle: saline with Tween-80): 108 % of control
T/C (dose: 1.0 mg/kg/injection, schedule: Q01DX009 (ip), vehicle: saline with Tween-80): 100 % of control
T/C (dose: 4.0 mg/kg/injection, schedule: Q01DX009 (ip), vehicle: saline with Tween-80): 108 % of control
T/C (dose: 8.0 mg/kg/injection, schedule: Q01DX009 (ip), vehicle: saline with Tween-80): 108 % of control

CN=C(N)c1ccc(NC(=O)c2ccc(C(=O)Nc3ccc(C(N)=NC)cc3)cc2)cc1
T/C (dose: 15.0 mg/kg/injection, schedule: Q01DX010 (ip), vehicle: saline): 150 % of control and 160 % of control
T/C (dose: 30.0 mg/kg/injection, schedule: Q01DX010 (ip), vehicle: saline): 160 % of control and 175 % of control
T/C (dose: 60.0 mg/kg/injection, schedule: Q01DX010 (ip), vehicle: saline): 175 % of control and 180 % of control
T/C (dose: 120.0 mg/kg/injection, schedule: Q01DX010 (ip), vehicle: saline): 160 % of control

NC(CO)C(=O)O.[Cl-].[Cl-].[Cl-].[Cl-].[Pt+2] (stereo unspecified)
T/C [4]: 116 % of control

Cc1ccc2c(c1)SSc1ccc(C)cc1SS2
T/C [10]: 103 % of control
T/C [6]: 109 % of control
T/C [7]: 114 % of control

CC(C)(C)c1cc2c3c(c1)C(C)(C)OS3(C)OC2(C)C
T/C (dose: 6.25 mg/kg/injection, schedule: Q04DX003 (ip), vehicle: saline with Tween-80): 102 % of control
T/C (dose: 12.5 mg/kg/injection, schedule: Q04DX003 (ip), vehicle: saline with Tween-80): 100 % of control
T/C (dose: 25.0 mg/kg/injection, schedule: Q04DX003 (ip), vehicle: saline with Tween-80): 92 % of control

CN(C)/C=C/C=C1C(=O)N(C)C(=O)N(C)C1=O
T/C (dose: 50.0 mg/kg/injection, schedule: Q01DX009 (ip), vehicle: other): 94 % of control
T/C (dose: 100.0 mg/kg/injection, schedule: Q01DX009 (ip), vehicle: other): 97 % of control
T/C (dose: 200.0 mg/kg/injection, schedule: Q01DX009 (ip), vehicle: other): 102 % of control

O=c1[nH][nH]c(=O)n1O
T/C [1]: 100 % of control
T/C [2]: 95 % of control

COC1=C(N)C(=O)c2ncccc2C1=O
T/C (dose: 4.0 mg/kg/injection, schedule: Q01DX010 (ip), vehicle: acetone): 113 % of control
T/C (dose: 8.0 mg/kg/injection, schedule: Q01DX010 (ip), vehicle: acetone): 109 % of control

NC(C(=O)O)C(=O)c1ccccc1 (stereo unspecified)
T/C (dose: 100.0 mg/kg/injection, schedule: Q04DX003 (ip), vehicle: saline sonified): 100 % of control
T/C (dose: 200.0 mg/kg/injection, schedule: Q04DX003 (ip), vehicle: saline sonified): 100 % of control
T/C (dose: 400.0 mg/kg/injection, schedule: Q04DX003 (ip), vehicle: saline sonified): 100 % of control
